# Reference: publication PMC4867230 (DNA repair, 2016)
# pEC50, pIC50: −log10 of the molar value.
# Tests used:
# Assay in all cases: kinetic fluorescence endonuclease assay, purified enzyme
# Format in all cases: biochemical
# [1] = biological target: T1, apurinic/apyrimidinic endonuclease 1 (APE1) (Homo sapiens, UniProt P27695)
# [2] = biological target: T1, apurinic/apyrimidinic endonuclease 1 (APE1); remark: listed apart in the source
# [3] = biological target: R177A APE1 (Homo sapiens, UniProt P27695, R177A)
# Sequence of R177A APE1 (P27695 whole entry R177A): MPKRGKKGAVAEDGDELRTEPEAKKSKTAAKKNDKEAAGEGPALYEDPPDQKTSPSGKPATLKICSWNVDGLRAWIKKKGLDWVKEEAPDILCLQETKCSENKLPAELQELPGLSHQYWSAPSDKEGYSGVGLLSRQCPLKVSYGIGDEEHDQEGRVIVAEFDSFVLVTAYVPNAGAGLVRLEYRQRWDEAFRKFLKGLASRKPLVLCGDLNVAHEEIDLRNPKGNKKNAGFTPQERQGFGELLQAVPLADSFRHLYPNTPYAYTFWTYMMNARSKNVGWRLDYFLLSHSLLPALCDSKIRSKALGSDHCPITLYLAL
# T1 sequence (P27695 whole entry): as the sequence (P27695 whole entry R177A) above, with A177R counted along it
Compound,pIC50 [1],pEC50 [2],pEC50 [3]
O=C(NCCO)c1cccnc1 [N-(2-hydroxyethyl)nicotinamide],4.19,,
O=C(NCCO[N+](=O)[O-])c1cccnc1 [nicorandil],,6.09,5.66
